This note sets out measurements from patent US8921376B2, “Pyrrolopyridines useful as inhibitors of protein kinase” (Vertex Pharmaceuticals Incorporated, priority 2005, dated 2014).

Type in all cases: biochemical
For one assay, the target named is JAK2 (Homo sapiens, UniProt O60674). Put plainly: JAK2 inhibition assay (as Example 3 with JAK-2 enzyme). The conditions noted are these: enzyme inhibition, Table 5. An outline of the steps: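 In HEPES pH 7.4 buffer with 10 mM MgCl2, 1 mM DTT, 25 mM NaCl and 0.01% BSA, JAK2 enzyme phosphorylated poly(Glu)4Tyr (final 15 μM) using 33P-ATP (final 12 μM) for 20 min at room temperature (25 °C). Reactions stopped with TCA; incorporated 33P measured by scintillation after filtration.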
Sequence of JAK2 (O60674 whole entry): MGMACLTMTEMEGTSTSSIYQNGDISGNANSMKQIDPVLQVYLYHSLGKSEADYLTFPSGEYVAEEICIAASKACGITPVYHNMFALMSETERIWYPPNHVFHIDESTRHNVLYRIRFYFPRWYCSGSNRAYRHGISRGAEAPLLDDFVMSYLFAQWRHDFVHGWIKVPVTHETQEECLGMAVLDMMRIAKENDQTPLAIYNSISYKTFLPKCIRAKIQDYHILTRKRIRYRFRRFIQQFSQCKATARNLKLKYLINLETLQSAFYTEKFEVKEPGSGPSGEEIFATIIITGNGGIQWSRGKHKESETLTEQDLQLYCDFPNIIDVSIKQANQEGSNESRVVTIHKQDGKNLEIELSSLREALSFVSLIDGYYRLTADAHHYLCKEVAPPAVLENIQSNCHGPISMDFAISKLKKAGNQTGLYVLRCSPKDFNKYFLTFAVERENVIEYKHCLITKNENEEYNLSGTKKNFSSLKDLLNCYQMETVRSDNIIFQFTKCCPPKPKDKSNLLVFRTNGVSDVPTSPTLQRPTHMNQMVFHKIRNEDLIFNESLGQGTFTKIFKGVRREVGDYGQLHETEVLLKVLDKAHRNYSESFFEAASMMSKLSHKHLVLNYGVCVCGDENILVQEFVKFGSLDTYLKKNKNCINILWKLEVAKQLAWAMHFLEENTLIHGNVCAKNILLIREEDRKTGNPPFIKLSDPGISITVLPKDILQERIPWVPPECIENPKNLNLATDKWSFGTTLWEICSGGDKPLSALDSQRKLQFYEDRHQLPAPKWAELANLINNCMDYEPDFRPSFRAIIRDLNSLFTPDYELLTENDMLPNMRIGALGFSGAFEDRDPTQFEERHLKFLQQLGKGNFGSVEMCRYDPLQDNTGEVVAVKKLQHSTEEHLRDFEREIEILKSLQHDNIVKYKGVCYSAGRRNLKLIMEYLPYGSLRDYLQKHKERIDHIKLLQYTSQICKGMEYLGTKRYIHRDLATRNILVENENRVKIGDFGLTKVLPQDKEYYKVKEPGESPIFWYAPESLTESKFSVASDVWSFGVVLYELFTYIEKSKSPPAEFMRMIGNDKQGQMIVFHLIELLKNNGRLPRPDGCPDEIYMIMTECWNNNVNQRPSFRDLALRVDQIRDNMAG

The next assay has as its target T1, JAK3 (Homo sapiens, UniProt P52333).
T1 sequence (P52333 1-1124): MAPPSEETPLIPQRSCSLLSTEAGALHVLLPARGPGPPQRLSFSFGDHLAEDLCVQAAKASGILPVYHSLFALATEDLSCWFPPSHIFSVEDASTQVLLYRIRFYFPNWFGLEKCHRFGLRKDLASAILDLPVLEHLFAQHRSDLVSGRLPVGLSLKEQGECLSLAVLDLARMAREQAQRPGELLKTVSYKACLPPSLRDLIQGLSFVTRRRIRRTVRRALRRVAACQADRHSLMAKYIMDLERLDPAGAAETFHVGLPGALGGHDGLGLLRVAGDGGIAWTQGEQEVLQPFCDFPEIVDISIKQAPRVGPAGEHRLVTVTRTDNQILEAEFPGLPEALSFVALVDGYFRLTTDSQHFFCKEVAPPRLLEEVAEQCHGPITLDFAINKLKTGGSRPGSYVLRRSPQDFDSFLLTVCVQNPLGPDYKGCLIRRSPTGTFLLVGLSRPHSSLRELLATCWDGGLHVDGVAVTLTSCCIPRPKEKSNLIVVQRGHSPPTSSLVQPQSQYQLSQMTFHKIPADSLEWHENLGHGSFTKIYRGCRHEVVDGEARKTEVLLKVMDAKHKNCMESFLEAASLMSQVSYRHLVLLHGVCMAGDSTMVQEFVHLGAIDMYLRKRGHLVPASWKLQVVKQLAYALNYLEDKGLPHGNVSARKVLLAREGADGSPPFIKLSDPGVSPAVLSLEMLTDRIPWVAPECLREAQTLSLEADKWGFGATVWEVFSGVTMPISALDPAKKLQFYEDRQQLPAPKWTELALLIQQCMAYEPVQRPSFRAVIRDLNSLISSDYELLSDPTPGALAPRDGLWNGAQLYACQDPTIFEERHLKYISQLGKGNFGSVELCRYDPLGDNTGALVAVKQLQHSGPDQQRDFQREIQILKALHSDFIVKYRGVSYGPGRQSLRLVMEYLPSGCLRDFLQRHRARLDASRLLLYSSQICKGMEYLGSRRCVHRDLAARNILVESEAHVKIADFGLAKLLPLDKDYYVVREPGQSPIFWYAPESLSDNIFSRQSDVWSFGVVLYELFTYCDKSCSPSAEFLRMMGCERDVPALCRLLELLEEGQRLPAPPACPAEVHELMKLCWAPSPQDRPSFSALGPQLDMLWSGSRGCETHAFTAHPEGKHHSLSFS
In words: JAK3 inhibition assay (33P incorporation into poly(Glu)4Tyr). As to conditions: enzyme inhibition, Table 5. An outline of the steps: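 After TCA quench and filter harvest, scintillation counting of 33P measured phosphorylation of poly(Glu)4Tyr (1 μM) by 1 nM JAK3. The 20-min, 25° C. reaction contained 5 μM ATP (200 μCi/μmole) in pH 7.4 HEPES buffer with 10 mM MgCl2.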

The next assay concerns the target ROCK I (Homo sapiens, UniProt Q13464). Put plainly: ROCK-I inhibition assay (radioactive enzyme assay, MBP substrate). As to conditions: enzyme inhibition, Ki(app), Table 5. An outline of the steps: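 Human ROCK at 5 nM phosphorylated 27 μM myelin basic protein with 13 μM [γ-33P]ATP (final) in HEPES pH 7.5, MgCl2, NaCl, DTT and 1.5% DMSO. Reactions ran 2 h at room temperature before TCA quench and filter-plate scintillation counting. After background subtraction, data were fit to give Ki(app).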

Sequence of ROCK I (Q13464 whole entry): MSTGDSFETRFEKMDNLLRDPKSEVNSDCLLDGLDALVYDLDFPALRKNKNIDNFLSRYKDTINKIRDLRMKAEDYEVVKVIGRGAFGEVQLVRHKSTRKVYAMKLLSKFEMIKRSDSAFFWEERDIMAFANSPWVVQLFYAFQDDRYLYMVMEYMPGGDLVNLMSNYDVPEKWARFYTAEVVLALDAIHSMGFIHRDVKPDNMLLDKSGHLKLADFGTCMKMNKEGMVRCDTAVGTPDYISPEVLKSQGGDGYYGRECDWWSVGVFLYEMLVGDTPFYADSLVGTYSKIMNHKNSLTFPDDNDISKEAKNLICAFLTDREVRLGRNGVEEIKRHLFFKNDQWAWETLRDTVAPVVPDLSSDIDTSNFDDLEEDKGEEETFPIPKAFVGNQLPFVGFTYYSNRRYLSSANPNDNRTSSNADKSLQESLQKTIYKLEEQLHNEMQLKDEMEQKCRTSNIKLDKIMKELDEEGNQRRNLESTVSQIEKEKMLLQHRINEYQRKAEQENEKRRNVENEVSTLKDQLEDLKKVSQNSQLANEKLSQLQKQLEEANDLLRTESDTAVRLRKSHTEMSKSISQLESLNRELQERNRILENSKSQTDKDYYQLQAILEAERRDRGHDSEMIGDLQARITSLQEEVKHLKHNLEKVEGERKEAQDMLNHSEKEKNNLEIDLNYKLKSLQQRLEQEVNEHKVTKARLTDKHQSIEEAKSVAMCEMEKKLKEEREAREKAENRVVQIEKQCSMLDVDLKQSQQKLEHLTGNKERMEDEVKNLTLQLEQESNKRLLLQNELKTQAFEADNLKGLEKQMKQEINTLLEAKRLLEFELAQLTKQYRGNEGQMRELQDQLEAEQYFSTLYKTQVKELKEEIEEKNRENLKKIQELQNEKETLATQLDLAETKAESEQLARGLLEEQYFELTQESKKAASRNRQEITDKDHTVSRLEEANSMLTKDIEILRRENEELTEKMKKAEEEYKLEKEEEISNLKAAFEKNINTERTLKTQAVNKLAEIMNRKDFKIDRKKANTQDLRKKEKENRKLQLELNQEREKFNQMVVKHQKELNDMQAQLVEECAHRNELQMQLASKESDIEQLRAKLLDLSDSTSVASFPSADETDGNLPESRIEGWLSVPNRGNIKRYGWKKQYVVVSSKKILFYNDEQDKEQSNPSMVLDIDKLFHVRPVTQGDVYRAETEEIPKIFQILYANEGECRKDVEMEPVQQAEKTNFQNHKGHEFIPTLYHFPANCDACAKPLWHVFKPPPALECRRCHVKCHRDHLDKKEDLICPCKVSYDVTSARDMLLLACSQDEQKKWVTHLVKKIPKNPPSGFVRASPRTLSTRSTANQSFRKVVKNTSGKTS

As for `Clc1cnc2[nH]ccc2c1-c1ccsc1` [compound 82, 5-Chloro-4-(thiophen-3-yl)-1H-pyrrolo[2,3b]pyridine], the Ki on JAK2 is under 500 nM; on JAK3 it was under 500 nM; at ROCK I, 500 to 5000 nM.

`CN(C)CCN(C)c1cccc(-c2c(Cl)cnc3[nH]ccc23)n1` [compound 83]: the Ki on JAK2 was under 500 nM; at JAK3, under 500 nM; at ROCK I it was 500 to 5000 nM.

For `CNCc1cccc(-c2ccnc3[nH]ccc23)c1` [compound 84, Methyl-[3-(1H-pyrrolo[2,3-b]pyridin-4-yl)-benzyl]-amine], the Ki was 500 to 5000 nM on JAK2, 500 to 5000 nM on JAK3 and under 500 nM at ROCK I.

On to `CN(C)Cc1cccc(-c2ccnc3[nH]ccc23)c1` [compound 85, Dimethyl-[3-(1H-pyrrolo[2,3-b]pyridin-4-yl)-benzyl]-amine], for which the Ki is 500 to 5000 nM on JAK2, under 500 nM on JAK3 and under 500 nM at ROCK I.

Take `c1cc(CNC2CC2)cc(-c2ccnc3[nH]ccc23)c1` [compound 86, Cyclopropyl-[3-(1H-pyrrolo[2,3-b]pyridin-4-yl)-benzyl]-amine]: the Ki is 500 to 5000 nM on JAK2, 500 to 5000 nM at JAK3 and under 500 nM on ROCK I.

Consider `c1cc(CN2CCCCC2)cc(-c2ccnc3[nH]ccc23)c1` [compound 87, 4-(3-Piperidin-1-ylmethyl-phenyl)-1H-pyrrolo[2,3-b]pyridine], for which the Ki on JAK2, on JAK3 and at ROCK I was 500 to 5000 nM throughout.

For the compound `c1cc(CN2CCOCC2)cc(-c2ccnc3[nH]ccc23)c1` [compound 88, 4-(3-Morpholin-4-ylmethyl-phenyl)-1H-pyrrolo[2,3-b]pyridine], the Ki at JAK2, at JAK3 and on ROCK I was 500 to 5000 nM throughout.

`CN1CCN(Cc2cccc(-c3ccnc4[nH]ccc34)c2)CC1` [compound 89, 4-[3-(4-Methyl-piperazin-1-ylmethyl)-phenyl]-1H-pyrrolo[2,3-b]pyridine]: the Ki at JAK2, at JAK3 and on ROCK I was 500 to 5000 nM throughout.

On to `CC1CC=C(c2c(Cl)cnc3[nH]ccc23)C1C` (stereo not drawn) [compound 90], for which the values for the Ki at JAK2, on JAK3 and on ROCK I were under 500 nM, under 500 nM and 500 to 5000 nM, respectively.

With `CNC(=O)c1cccc(-c2ccnc3[nH]ccc23)c1` [compound 91, N-Methyl-3-(1H-pyrrolo[2,3-b]pyridin-4-yl)-benzamide], the Ki at JAK2, at JAK3 and at ROCK I was 500 to 5000 nM each time.

`CN(C)C(=O)c1cccc(-c2ccnc3[nH]ccc23)c1` [compound 92, N,N-Dimethyl-3-(1H-pyrrolo[2,3-b]pyridin-4-yl)-benzamide]: the Ki on JAK2, at JAK3 and on ROCK I was 500 to 5000 nM throughout.

Regarding `O=C(c1cccc(-c2ccnc3[nH]ccc23)c1)N1CCCCC1` [compound 93, Piperidin-1-yl-[3-(1H-pyrrolo[2,3-b]pyridin-4-yl)-phenyl]-methanone], the Ki at JAK2 was over 5000 nM; on JAK3, 500 to 5000 nM; at ROCK I, 500 to 5000 nM.

As to `O=C(c1cccc(-c2ccnc3[nH]ccc23)c1)N1CCOCC1` [compound 94, Morpholin-4-yl-[3-(1H-pyrrolo[2,3-b]pyridin-4-yl)-phenyl]-methanone], the Ki on JAK2, on JAK3 and at ROCK I was 500 to 5000 nM throughout.

For `CN1CCN(C(=O)c2cccc(-c3ccnc4[nH]ccc34)c2)CC1` [compound 95, (4-Methyl-piperazin-1-yl)-[3-(1H-pyrrolo[2,3-b]pyridin-4-yl)-phenyl]-methanone], the results for the Ki on JAK2, at JAK3 and at ROCK I were over 5000 nM, over 5000 nM and 500 to 5000 nM, respectively.

On to `CC(C)(C(=O)O)c1cccc(-c2ccnc3[nH]ccc23)n1` [compound 96, 2-(6-(1H-pyrrolo[2,3-b]pyridin-4-yl)pyridin-2-yl)-2-methylpropanoic acid], for which the Ki at JAK2, on JAK3 and at ROCK I was 500 to 5000 nM in each case.

Regarding `CC(C)c1cccc(-c2ccnc3[nH]ccc23)n1` [compound 97, 4-(6-isopropylpyridin-2-yl)-1H-pyrrolo[2,3-b]pyridine], the Ki at JAK2, at JAK3 and on ROCK I was under 500 nM each time.

For the compound `CC(=O)Nc1cccc(-c2ccnc3[nH]ccc23)n1` [compound 98, N-(6-(1H-pyrrolo[2,3-b]pyridine-4-yl)pyridin-2-yl)acetamine], the Ki at JAK2 was under 500 nM; at JAK3, 500 to 5000 nM; at ROCK I, 500 to 5000 nM.

Regarding `O=C(Cc1ccccc1)Nc1cccc(-c2ccnc3[nH]ccc23)n1` [compound 99, N-(6-(1H-pyrrolo[2,3-b]pyridine-4-yl)pyridin-2-yl)phenylacetamide], the Ki at JAK2 is under 500 nM; on JAK3, over 5000 nM; at ROCK I, 500 to 5000 nM.

Regarding `O=C(Nc1cccc(-c2ccnc3[nH]ccc23)n1)c1ccccc1` [compound 100, N-(6-(1H-pyrrolo[2,3-b]pyridine-4-yl)pyridin-2-yl)benzamide], the Ki is under 500 nM at JAK2, 500 to 5000 nM at JAK3 and 500 to 5000 nM at ROCK I.

In the case of `N#CC1(c2cccc(-c3ccnc4[nH]ccc34)n2)CC1` [compound 101, 1-(6-(1H-pyrrolo[2,3-b]pyridin-4-yl)pyridin-2-yl)cyclopropanecarbonitrile], the Ki at JAK2, on JAK3 and at ROCK I was under 500 nM in each case.

For the compound `N#CC1(c2cccc(-c3ccnc4[nH]ccc34)n2)CCCC1` [compound 102, 1-(6-(1H-pyrrolo[2,3-b]pyridin-4-yl)pyridin-2-yl)cyclopentanecarbonitrile], the Ki at JAK2, at JAK3 and at ROCK I was under 500 nM in each case.

Consider `N#CC1(c2cccc(-c3ccnc4[nH]ccc34)n2)CCCCC1` [compound 103, 1-(6-(1H-pyrrolo[2,3-b]pyridin-4-yl)pyridin-2-yl)cyclohexanecarbonitrile], for which the Ki at JAK2, on JAK3 and on ROCK I was under 500 nM in each case.

As to `c1ncc(-c2ccnc3[nH]ccc23)cn1` [compound 104, 4-Pyrimidin-5-yl-1H-pyrrolo[2,3-b]pyridine], the Ki on JAK2, on JAK3 and on ROCK I was 500 to 5000 nM throughout.

Turning to `Oc1cccc(-c2ccnc3[nH]ccc23)c1` [compound 105, 3-(1H-Pyrrolo[2,3-b]pyridin-4-yl)-phenol], the Ki on JAK2, at JAK3 and at ROCK I was under 500 nM each time.

With `c1cc(-c2ccnc3[nH]ccc23)[nH]n1` [compound 106, 4-(2H-Pyrazol-3-yl)-1H-pyrrolo[2,3-b]pyridine], the Ki was 500 to 5000 nM at JAK2, under 500 nM on JAK3 and under 500 nM at ROCK I.

As to `CC(=O)Nc1cccc(-c2ccnc3[nH]ccc23)c1` [compound 107, N-[3-(1H-Pyrrolo[2,3-b]pyridin-4-yl)-phenyl]-acetamide], the Ki on JAK2, on JAK3 and on ROCK I was 500 to 5000 nM in each case.

Regarding `N#Cc1ccc(-c2ccnc3[nH]ccc23)s1` [compound 108, 5-(1H-Pyrrolo[2,3-b]pyridin-4-yl)-thiophene-2-carbonitrile], the Ki on JAK2, on JAK3 and on ROCK I was under 500 nM each time.

With `CC(C)c1cccc(-c2ccnc3[nH]ccc23)c1` [compound 109, 4-(3-Isopropyl-phenyl)-1H-pyrrolo[2,3-b]pyridine], the Ki on JAK2, at JAK3 and at ROCK I was under 500 nM each time.
